Reference: article PMC4806436, “Disrupted ADP-ribose metabolism with nuclear Poly (ADP-ribose) accumulation leads to different cell death pathways in presence of hydrogen peroxide in procyclic Trypanosoma brucei” (Parasites & Vectors, 2016)
“Also recorded” adds a separate entry of the source. Read-outs that look alike come from different tables or passages of the source. Values belong to the compound of their own block, whether it stands above or below them.

How the values were obtained:
[1] = biological target: TbPARP (Trypanosoma brucei brucei, UniProt Q0PW89); assay: biochemical; details: 500 nM NAD+, 11 min at 25 °C, mean of three dose-response curves
Protocol: The optimal conditions for the activity of purified recombinant TbPARP, were determined by using a fluorometric activity assay. Incubation at 25 °C with shaking at 300 rpm was placed in propylene plates of 96 wells (Greiner BioOne). To terminate the reaction 2 M KOH (20 μL) and 20 % acetophenone in ethanol (20 μL) were added to each well. After incubating for 10 min at 4 °C, 90 μl of 88 % formic acid was added and incubated in an oven at 110 °C for 5 min. This reaction converts remaining NAD^+ to a fluorescent derivative. After incubation, the plate was allowed to cool down for 15 min and fluorescence was measured using excitation wavelengths of 372 nm and 444 nm for excitation and emission, respectively (Varioskan Flash 4.00.53, Thermo Scientific). Consumption of NAD^+ was detected by the decrease in fluorescence. Experiments were done in triplicates. The activity in control wells were kept under 25 % by optimizing the protein concentration and the incubation time, in order to get a robust signal without slowing down the enzyme activity.
A small set of cations was also tested in order to verify whether the enzymatic activity would depend on them. […] The final assay buffer was 100 mM Na2HPO4/NaH2PO4 pH 7, 500 μM TCEP, 1 μg/μL BSA, and 0.025 mg/mL activated DNA (Sigma Aldrich) and 500 nM NAD^+ (Sigma Aldrich).
Thirty - one compounds were tested. Dilutions from DMSO stocks were made (100 μM, 10 μM and 1 μM) and aliquots of those were used in the enzymatic reaction with 10-fold dilution. Inhibitor solutions were added in triplicates to the plate, followed by the addition of the NAD^+. Reactions were initiated by addition of TbPARP diluted in the same buffer (10 nM). The plate was incubated at 25 °C with shaking (300 rpm, Biosan PST-100 HL) for 45 min. […] To detect any potential fluorescence inherent in the compounds, control reactions were carried out separately with compound alone at 10 μM final concentration. The possible fluorescence quenching properties were controlled using wells within the experimental plate containing the compound with 500 nM NAD^+ in the assay buffer.
The IC50 value for 3-AB (Alexis Biochemicals) was also determined to be used as a reference. Briefly, reaction mix together with the inhibitors at half log dilutions were added to a 96-well plate (10 data points). Reactions were incubated for 11 min at 25 °C after initiating the reaction with the addition of 5 nM TbPARP at a final volume of 50 μL. Measurement of the remaining NAD^+ is described in section Screening of TbPARP inhibitors. All reactions were performed in triplicates and three independent dose response curves were fitted for each inhibitor. Control wells with only NAD^+ or NAD^+ and enzyme were used in the curve fitting, as detailed in our previous work.

[2] = test system: hPARP-1; details: cited from earlier work
[3] = test system: Trypanosoma brucei bloodstream parasites; assay: Effect of inhibitors on bloodstream parasite growth (Neubauer count, 24 h); type: cell-based; details: Olaparib 29 nM, Rucaparib 1.5 μM, 3-AB 580 μM, Nifurtimox 2.5 μM
Protocol: Trypanosoma brucei bloodstream parasites were grown in HMI-11 medium for 24 h until reaching a density of 5×10^5 cells/mL. Aliquots of 100 μL were distributed in 96-well plates and inhibitors were added at different concentrations as indicated in the figures. After an incubation period of 24 h, the parasite number was counted with a Neubauer chamber. In all experiments, triplicates were done for each condition tested and data significance was assessed by one-way Anova (GraphPad Prism5.03 version Software).

[4] = test system: T. cruzi epimastigotes; details: cited from earlier work
[5] = test system: PAR formation in procyclic T. brucei; assay: In culture inhibition of PAR formation after H2O2, Dot blot, procyclic form; type: cell-based, Trypanosoma brucei; details: for reduction of PAR synthesis in the parasite: discussion, parasite form not given; for inhibition of PAR formation in culture, procyclic form: inhibitor at 10-fold in vitro IC50 (0.23 μM 4-ANI; 65 nM EB-47; 29 nM Olaparib; 1.5 μM Rucaparib), 30 min preincubation, 500 μM H2O2 10 min
Protocol: (§1) T. brucei procyclic strain 29–13 [29] was cultured at 28 °C in SDM-79 (Bioscience) containing 10 % (v/v) FCS and 0002 % hemin. T. brucei bloodstream strain 427 90-13 [29] was cultured at 37 °C in HMI-11 (Iscore’s Modified Dulbecco’s Medium (Invitrogen), 100 mg/L sodium pyruvate, 136.1 mg/L hypoxantine, 38.7 mg/L thymidine, 28.22 mg/L bathocuproinedisulfonic acid, 181.8 mg/L L-cysteine, 3.024 mg/L sodium carbonate, 196 μM β-mercaptoethanol) containing FCS (10 % v/v). Parasite viability was analyzed by microscopy.
(§2) For in culture inhibition assays, parasites of the procyclic form of Trypanosoma brucei were grown for 48 h up to a density of 5×10^6 parasites/mL. Parasites of the bloodstream form were grown for 24 h up to a density of 5×10^5 parasites/mL. In both cases, cells were harvested and preincubated for 30 min or 10 min in PBS-Glucose 2 % with inhibitors added, after which the parasites were treated with 500 μM or 250 μM hydrogen peroxide for procyclic and bloodstream forms, respectively, for 10 min.

[6] = test system: Trypanosoma brucei procyclic parasites; assay: Effect of inhibitors on procyclic parasite growth (OD600, 48 h); type: cell-based; details: 2.5 μM, 48 h, positive control
Protocol: Trypanosoma brucei procyclic parasites were grown in SDM-79 medium for 48 h until reaching a density of 5×10^6 cells/mL. Aliquots of 200 μl were distributed in 96-well plates and inhibitors were present at different final concentrations, as indicated in the figures. Nifurtimox (NFX) was used as a positive control in concentrations ranging from 0.25–25 μM. Culture density was checked by OD600 after 48 h.
In all experiments, triplicates were done for each condition tested and data significance was assessed by one-way Anova (GraphPad Prism5.03 version Software).

[7] = test system: PAR formation in bloodstream T. brucei; assay: In culture inhibition of PAR formation after H2O2, Dot blot, bloodstream form; type: cell-based, Trypanosoma brucei; details: inhibitor at 10-fold in vitro IC50 (29 nM Olaparib; 1.5 μM Rucaparib), 10 min preincubation, 250 μM H2O2
Protocol: as §1, §2

[8] = test system: RNAi-TbPARP procyclic parasites; assay: Growth of Tet induced RNAi-TbPARP procyclic parasites with inhibitor; type: cell-based, Trypanosoma brucei; details: 290 nM inhibitor
Excerpt: A fragment of the TbPARP cDNA (nucleotides 1030 to 1445) [GenBank:DQ679800, Tb927.5.3050] and a fragment of the TbPARG cDNA (nucleotides 593 to 979) [Tb927.9.12810] were sub-cloned into the tetracycline-inducible expression vector p2T7^TI-177 [30] to down-regulate the genes of interest. In addition, whole TbPARP cDNA sequence was sub-cloned into the expression vector p2216 [31] (PCR primer sequences available upon request) to over-express the PARP-eYFP fusion gene.
Not I-linearized RNAi-TbPARP and RNAi-TbPARG constructs and the over-expression construct (10 μg) were transfected into procyclic parasites by electroporation, as described by Downey et al.. The selection of the transfectants was carried out with 20 μg/mL zeocin, and dsRNA and over-expression of the fusion protein was induced with 1.0 μg/mL tetracycline for 3 days.

[9] = test system: T. brucei procyclic parasites; assay: Cell survival (motility) after H2O2 treatment with PARP inhibitor; details: 29 nM inhibitor
Protocol: Cell survival was determined by incubating 500 μL of 1 × 10^6 parasites/mL culture in 24-well cell culture plates (Cellstar) for 6 h with different concentrations of H2O2 (30 μM, 95 μM, 300 μM and 950 μM) and counting motile parasites over the total number using a Neubauer chamber. Each condition was tested in triplicates. Statistical significance was assessed with two-way Anova followed by Bonferroni test (version 5.03 of GraphPad Prism for Windows).

[10] = test system: wild type procyclic parasites; assay: Annexin V / PI flow cytometric cell death analysis; type: cell-based, Trypanosoma brucei; details: 10 μg/mL, apoptosis-like positive control
Protocol: Parasites were treated with 1 mM H2O2 for different time intervals and the cell death pathway involved was assessed as it has been detailed in our previous work. The exposure of wild type procyclic parasites for 6 and 12 h to 10 μg/mL Concanavalin A type IV (Sigma-Aldrich) confirmed the apoptosis-like death pathway (positive control). […] Results were analyzed with Cyflogic v 1.2.1 software.

[11] = 5 nM TbPARP, read-out: TbPARP IC50
[12] = 5 nM TbPARP, read-out: TbPARP pIC50 ± SEM (converted)

Chain of TbPARP (Q0PW89 entry or part of it): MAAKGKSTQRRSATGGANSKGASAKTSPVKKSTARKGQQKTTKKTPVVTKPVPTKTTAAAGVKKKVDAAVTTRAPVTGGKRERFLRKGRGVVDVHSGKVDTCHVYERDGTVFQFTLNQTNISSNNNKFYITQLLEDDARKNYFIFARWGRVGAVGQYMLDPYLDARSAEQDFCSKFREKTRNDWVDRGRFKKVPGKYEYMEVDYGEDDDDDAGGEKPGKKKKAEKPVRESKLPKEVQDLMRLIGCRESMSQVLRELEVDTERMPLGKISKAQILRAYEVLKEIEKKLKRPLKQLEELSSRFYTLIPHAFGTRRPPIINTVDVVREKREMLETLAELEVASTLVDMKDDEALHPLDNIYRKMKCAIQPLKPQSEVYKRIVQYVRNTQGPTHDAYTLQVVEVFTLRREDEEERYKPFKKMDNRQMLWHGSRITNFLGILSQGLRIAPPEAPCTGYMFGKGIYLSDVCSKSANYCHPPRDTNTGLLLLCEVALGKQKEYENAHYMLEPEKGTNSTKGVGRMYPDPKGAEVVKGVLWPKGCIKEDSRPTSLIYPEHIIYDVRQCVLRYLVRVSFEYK

- IC50 [1, 11]: 1200 nM
- IC50 [1, 12]: 1230 nM
Compound: O=c1[nH]ccc2c(O)cccc12 [1,5-Isoquinolinediol, 5-hydroxy-1,2-dihydroisoquinolin-1-one]
- IC50 ([2]; reported for human PARP-1): 390 nM

- IC50 [1, 11]: 58000 nM
- IC50 [1, 12]: 57500 nM
Compound: NC(=O)c1cccc(N)c1 [Compound 3-AB, 3-aminobenzamide]
- effect on bloodstream parasite growth [3]: did provoke a decrease on bloodstream parasite growth
- IC50 ([2]; reported for human PARP-1): 22000 nM
- effect on T. cruzi growth ([4]; reported earlier, reference not given): reported to diminish T. cruzi growth

Compound: Nc1ccc2c3c(cccc13)C(=O)NC2=O [Compound 4-ANI, 8-amino-3-azatricyclo[7.3.1.0^{5,13}]trideca-1(12),5,7,9(13),10-pentaene-2,4-dione]
- IC50 [1, 11]: 23 nM
- IC50 [1, 12]: 22.9 nM
- reduction of PAR synthesis in the parasite [5]: not able to reduce PAR synthesis in the parasite
- inhibition of PAR formation in culture, procyclic form [5]: scarcely inhibited the enzyme
- IC50 [2]: 180 nM

- IC50 [1, 11]: 6.5 nM
- IC50 [1, 12]: 6.46 nM
Compound: Nc1ncnc2c1ncn2[C@@H]1O[C@H](C(=O)N2CCN(CC(=O)Nc3cccc4c3CNC4=O)CC2)[C@@H](O)[C@H]1O [EB-47, 2-(4-{[(2S,3S,4R,5R)-5-(6-amino-9H-purin-9-yl)-3,4-dihydroxyoxolan-2-yl]carbonyl}piperazin-1-yl)-N-(1-oxo-2,3-dihydro-1H-isoindol-4-yl)acetamide]
- reduction of PAR synthesis in the parasite [5]: not able to reduce PAR synthesis in the parasite
- inhibition of PAR formation in culture, procyclic form [5]: did not inhibit TbPARP at all

- IC50 ([1]; TbPARP IC50, […] nM TbPARP): 680 nM
- IC50 ([1]; TbPARP pIC50 ± SEM, 5 nM TbPARP): 676 nM
Compound: Cc1nc(=O)c2cccc(O)c2[nH]1 [NU1025, 8-hydroxy-2-methyl-1,4-dihydroquinazolin-4-one]
- IC50 ([2]; reported for human PARP-1): 400 nM

Compound: CC1CS(=O)(=O)CCN1/N=C/c1ccc([N+](=O)[O-])o1 (stereo not shown) [Nifurtimox]
- effect on procyclic parasite growth [6]: slowed down procyclic parasite growth
- effect on bloodstream parasite growth [3]: did provoke a decrease on bloodstream parasite growth

Compound: O=C(c1cc(Cc2n[nH]c(=O)c3ccccc23)ccc1F)N1CCN(C(=O)C2CC2)CC1 [Olaparib, 4-({3-[(4-cyclopropanecarbonylpiperazin-1-yl)carbonyl]-4-fluorophenyl}methyl)-1,2-dihydrophthalazin-1-one]
- IC50 [1, 11]: 2.9 nM
- IC50 [1, 12]: 2.95 nM
- inhibition of PAR formation in culture, procyclic form [5]: inhibited PAR formation in culture; also recorded: able to reduce PAR formation
- inhibition of PAR formation in culture, bloodstream form [7]: able to inhibit PAR formations in culture; also recorded: able to reduce PAR formation
- effect on bloodstream parasite growth [3]: not able to significantly affect T. brucei growth or survival
- growth rate of Tet induced RNAi-TbPARP procyclic parasites [8]: no change in growth rate
- decrease in growth of T. cruzi epimastigotes in culture ([4]; 25 nM): 50%
- parasite viability (motility) in presence versus absence of inhibitor ([9]; 30 μM H2O2, 6 h): no difference in parasite viability
- parasite viability (motility) in presence versus absence of inhibitor ([9]; 95 μM H2O2, 6 h): reduced the loss of viability induced by the oxidant
- parasite motility in presence versus absence of inhibitor ([9]; 300 μM H2O2, 6 h, not statistically significant): slight protective effect

- IC50 [1, 11]: 580 nM
- IC50 [1, 12]: 589 nM
Compound: CN(C)CC(=O)Nc1ccc2[nH]c(=O)c3ccccc3c2c1 [PJ-34, 2-(dimethylamino)-N-(6-oxo-5,6-dihydrophenanthridin-2-yl)acetamide]

- IC50 [1, 11]: 1100 nM
- IC50 [1, 12]: 1150 nM
Compound: Oc1nc(C2CC2)nc2c1CSCC2 [RF03876, 2-cyclopropyl-5H,7H,8H-thiopyrano[4,3-d]pyrimidin-4-ol]

- IC50 [1, 11]: 49 nM
- IC50 [1, 12]: 49 nM
Compound: C[C@]1(c2nc3c(C(N)=O)cccc3[nH]2)CCCN1 [Veliparib, 2-[(2R)-2-methylpyrrolidin-2-yl]-1H-1,3-benzodiazole-4-carboxamide]
- Ki [2]: 5 nM

Compound: Concanavalin A
- cell death pattern (Annexin V incorporation) [10]: typical apoptosis response with an increment in Annexin incorporation
